# Key:
# [1] = target: T1, human PPARδ ligand binding domain (Homo sapiens, UniProt Q03181); experiment: PPAR reporter gene assay (Gal4 hybrid, PPARδ); type: cell-based; details: HEK-293T, reference L165,041 1 μM, tested up to 10 μM
# T1 construct: expressed in transfected cells; host or cells: HEK-293T
# T1 sequence (Q03181 211-439 limits assumed): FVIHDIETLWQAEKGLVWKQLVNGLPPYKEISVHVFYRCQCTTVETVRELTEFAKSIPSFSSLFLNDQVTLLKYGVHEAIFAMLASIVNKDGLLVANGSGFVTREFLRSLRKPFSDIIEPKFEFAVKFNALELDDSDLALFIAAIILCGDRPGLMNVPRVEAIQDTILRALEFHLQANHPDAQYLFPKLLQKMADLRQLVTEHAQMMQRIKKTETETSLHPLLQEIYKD
# Experimental: (§3) HEK-293T cells were seeded in 96-well plates (2.5 × 10^4 cells/well) and were allowed to adhere overnight. Before transfection, medium was changed to Opti-MEM without supplements. Transient plasmid transfection was carried out using Lipofectamine LTX reagent (Invitrogen, Carlsbad, CA, United States) according to the manufacturer’s protocol with pFR-Luc (Stratagene, La Jolla, CA, United States), pRL-SV40 (Promega, Fitchburg, MA, United States) and pFA-CMV-PPAR-LBD ([Rau et al., 2006]). 5 h after transfection, medium was changed to Opti-MEM supplemented with penicillin (100 U/mL) and streptomycin (100 μg/mL), now additionally containing 0.1% DMSO and the respective test compound or 0.1% DMSO alone as untreated control. Each concentration was tested in triplicates and each experiment was repeated independently at least four times. Following overnight (12–16 h) incubation with the test compounds, cells were assayed for luciferase activity using the Dual-Glo^TM Luciferase Assay System (Promega, Fitchburg, MA, United States) according to the manufacturer’s protocol. Luminescence was measured with an Infinite M200 luminometer (Tecan Group Ltd., Männedorf, Switzerland). Normalization of transfection efficiency and cell growth was done by division of firefly luciferase data by renilla luciferase data and multiplying the value by 1000 resulting in relative light units (RLU). Fold activation was obtained by dividing the mean RLU of a test compound at a respective concentration by the mean RLU of untreated control. Relative activation was obtained by dividing the fold activation of a test compound at a respective concentration by the fold activation of the respective PPARα, γ or δ full agonist GW-7647, pioglitazone or L165,041 at 1 μM. EC50 and standard deviation were calculated with the mean relative activation values of at least four independent experiments by SigmaPlot 10.0 (Systat Software GmbH, Erkrath, Germany) using a four parameter logistic regression. […]
# CysLT1R = details: Table 2 comparison column; no method, no reference given; cited from earlier work
# recombinant human sEH = target: T2, recombinant human sEH (Homo sapiens, UniProt P34913); experiment: Recombinant sEH activity (PHOME fluorescence assay); type: biochemical; details: PHOME 50 μM, 30 min preincubation at RT, read-out: sEH rec. IC50
# T2 sequence (P34913 1-555): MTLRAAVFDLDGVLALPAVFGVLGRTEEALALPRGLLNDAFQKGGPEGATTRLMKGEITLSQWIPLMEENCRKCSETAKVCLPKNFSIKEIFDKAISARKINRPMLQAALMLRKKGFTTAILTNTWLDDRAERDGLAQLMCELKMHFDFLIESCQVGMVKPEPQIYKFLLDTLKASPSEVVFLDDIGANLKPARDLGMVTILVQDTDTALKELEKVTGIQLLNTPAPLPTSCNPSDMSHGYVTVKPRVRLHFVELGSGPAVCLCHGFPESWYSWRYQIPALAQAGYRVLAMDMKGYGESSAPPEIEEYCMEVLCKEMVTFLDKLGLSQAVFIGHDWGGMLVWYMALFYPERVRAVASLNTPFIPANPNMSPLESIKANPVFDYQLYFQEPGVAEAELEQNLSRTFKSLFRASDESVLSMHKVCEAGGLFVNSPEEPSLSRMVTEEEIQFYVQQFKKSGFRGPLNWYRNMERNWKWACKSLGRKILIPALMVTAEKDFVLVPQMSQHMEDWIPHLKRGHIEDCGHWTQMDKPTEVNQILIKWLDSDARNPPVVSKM
# Experimental: For determination of IC50 values of recombinant human sEH a 96-well fluorescence-based assay system was used as described before ([Blöcher et al., 2016a]). In brief, non-fluorescent PHOME (3 phenylcyano-(6-methoxy-2-naphthalenyl)methyl ester 2-oxiraneacetic acid, Cayman Chemicals, Ann Arbor, MI, United States) was used as substrate, which is hydrolyzed by sEH to the fluorescent 6-methoxynaphthaldehyde ([Rau et al., 2006]). The formation of the fluorescent product was measured (λem = 330 nm, λex = 465 nm) by an Infinite F200 Pro plate reader (Tecan Group Ltd., Männedorf, Switzerland). For that purpose, 2 μg recombinant human sEH in 100 μl bis-Tris buffer (pH 7, 0.1 mg/mL BSA, 0.01% Triton-X 100) was applied per well. This protein solution was then incubated with different concentrations of the test compounds for 30 min at RT. After this, 10 μL of the substrate were added (final concentration 50 μM). The formation of 6-methoxynaphthaldehyde was monitored for 30 min. All concentrations were tested in triplicate wells.
# sEH (HEP-G2) = target: T3, sEH (HEP-G2) (Homo sapiens, UniProt P34913); experiment: sEH activity in HEP-G2 cell lysates (14(15)-EET-d11 to DHET-d11, LC-MS/MS); type: biochemical; details: HEP-G2 cell homogenate, (±)14(15)-EET-d11 substrate, DHET formation by LC-MS/MS
# T3 construct: 1 μg of total cell homogenate diluted in 100 μl of PBS; endogenous in cells; host or cells: HEP-G2
# T3 sequence (P34913 1-555): T2 sequence (P34913 1-555)
# Experimental: Quantification of cellular sEH metabolic activity was performed as described by [Zha et al. (2014)]. For this, HEP-G2 cells were harvested, washed twice with PBS and sonicated in PBS for disruption of cell integrity. Then, 1 μg of total cell homogenate diluted in 100 μl of PBS containing 0.1 mg/ml BSA was incubated with the compounds or vehicle for 15 min at 37°C. After this, 25 ng (±)14(15)-EET-d11 (Cayman Chemical, Ann Arbor, MI, United States) were added per sample and the incubation was continued for additional 10 min at 37°C. A blank was performed using PBS (containing 0,1 mg/mL BSA). The reactions were stopped by adding 100 μL of ice cold methanol. After centrifugation (2000 rpm, 4°C, 5 min), supernatants were analyzed by LC-MS/MS and the amounts of (±)14(15)-EET-d11 and the corresponding (±)14(15)-DHET-d11 were determined.
# 14(15)-EET-d11 and 14(15)-DHET-d11 content of the extracted samples were analyzed employing liquid chromatography tandem mass spectroscopy (LC-MS/MS). The LC/MS-MS system comprised an API 5500 QTrap (Sciex, Darmstadt, Germany), equipped with a Turbo-V-source operating in negative ESI mode, an Agilent 1200 binary HPLC pump and degasser (Agilent, Waldbronn, Germany) and an HTC Pal autosampler (Chromtech, Idstein, Germany) fitted with a 25 μL LEAP syringe (Axel Semrau GmbH, Sprockhövel, Germany). High purity nitrogen for the mass spectrometer was produced by a NGM 22-LC/MS nitrogen generator (cmc Instruments, Eschborn, Germany). All substances were obtained from Cayman Chemical, Ann Arbor, MI, United States. Stock solutions with 2,500 ng/mL of both analytes were prepared in methanol. Working standards were obtained by further dilution with a concentration range of 0.1–250 ng/mL for 14(15)-EET-d11 and 14(15)-DHET-d11. Sample extraction was performed with liquid–liquid-extraction. Therefore, 150 μL of matrix homogenates were gently mixed with 20 μL of internal standard [14(15)-EET and 14(15)-DHET all with a concentration of 100 ng/ml in methanol], and were extracted twice with 600 μL of ethyl acetate. Samples for standard curve and quality control were prepared similarly, instead of 150 μL of matrix homogenates, 150 μL PBS were added. Further 20 μL methanol, 20 μL working standard and 20 μL internal standard were added. The organic phase was removed at a temperature of 45°C under a gentle stream of nitrogen. The residues were reconstituted with 50 μL of methanol/water/(50:50, v/v), centrifuged for 2 min at 10,000 g and then transferred to glass vials (Macherey-Nagel, Düren, Germany) prior to injection into the LC-MS/MS system. For the chromatographic separation a Gemini NX C18 column and pre-column were used (150 mm × 2 mm i.d., 5 μm particle size and 110 Å pore size from Phenomenex, Aschaffenburg, Germany). A linear gradient was employed at a flow rate of 0.5 mL/min mobile phase with a total run time of 17.5 min. Mobile phase was A water/ammonia (100:0.05, v/v) and B acetonitrile/ammonia (100:0.05, v/v). The gradient started from 85% A to 10% within 12 min. This was held for 1 min at 10% A. Within 0.5 min the mobile phase shifted back to 85% A and was held for 3.5 min to equilibrate the column for the next sample. The injection volume of samples was 20 μL. Quantification was performed with Analyst Software V 1.5.1 (Sciex, Darmstadt, Germany) employing the internal standard method (isotope- dilution mass spectrometry). Ratios of analyte peak area and internal standard area (y-axis) were plotted against concentration (x-axis) and calibration curves were calculated by least square regression with 1/concentration^2 weighting.
# [2] = target: T4, human PPARα ligand binding domain (Homo sapiens, UniProt Q07869); experiment: PPAR reporter gene assay (Gal4 hybrid, PPARα); type: cell-based; details: HEK-293T, reference GW7647 1 μM, tested up to 10 μM
# T4 construct: expressed in transfected cells; host or cells: HEK-293T
# T4 sequence (Q07869 239-466 limits assumed): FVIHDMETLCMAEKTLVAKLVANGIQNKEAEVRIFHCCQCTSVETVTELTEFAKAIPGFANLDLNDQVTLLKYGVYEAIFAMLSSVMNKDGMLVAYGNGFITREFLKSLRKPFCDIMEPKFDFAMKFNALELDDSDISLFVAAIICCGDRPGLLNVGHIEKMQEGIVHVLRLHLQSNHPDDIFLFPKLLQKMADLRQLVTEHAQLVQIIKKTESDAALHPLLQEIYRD
# Experimental: as §3
# 3T3-L1 cells = experiment: 3T3-L1 adipocyte differentiation, Oil Red O lipid accumulation; type: cell-based, murine; details: differentiation cocktail plus zafirlukast or montelukast 1, 5, 10 μM or rosiglitazone 2 μM; 14 days
# Experimental: (§1) 3T3-L1 cells were differentiated into adipocytes for 14 days according to the protocol of [Zebisch et al. (2012)]. For this, cells were seeded in 6-well plates ([…]) and differentiation was induced after 48 h by addition of a differentiation cocktail containing 1 μg/mL insulin, 0.25 μM dexamethasone and 0.5 mM isobutylmethylxanthine (IBMX) in DMEM supplemented with 10% FCS and 1% PS. […] After 2 days, medium was replaced by DMEM supplemented with 10% FCS, 1% PS and 1 μg/mL insulin for 2 more days. Afterwards, cells were kept for lipid droplet accumulation in DMEM containing 10% FCS and 1% PS until day 15. Media were replaced every other day.
# Differentiated 3T3-L1 cells were washed with PBS and subsequently fixed for 60 min with formaldehyde (4% in PBS). Afterwards, cells were thoroughly rinsed with 60% isopropanol and incubated with Oil Red O solution (0.3% in 60% isopropanol) for 120 min. This was followed by the removal of the staining solution and thorough rinsing of the cell layer with ultrapure water. Finally, the plates were dried and pictures of the stained cell layers were taken.
# For quantification of the accumulated dye, 3T3-L1 cells were seeded in 24-well plates (0.55 × 10^5/well) instead of 6-wells and the differentiation was carried out as described in the section ‘Adipocyte differentiation’. After 14 days of differentiation, cells were fixed and stained as described above. […] 100 μl of dye extract were transferred to a 96-well plate and absorbance was measured (λabs = 510 nm) by an Infinite F200 plate reader (Tecan Group Ltd., Männedorf, Switzerland). […]
# As master regulator of adipocyte differentiation in men and mice, PPARγ plays a crucial role in the cell’s commitment to the adipocyte lineage by controlling important functions such as intracellular biosynthesis, transport and accumulation of lipids. […] Upon differentiation, different parameters such as lipid accumulation and PPARγ target gene expression can be assessed to investigate the PPARγ activating potential of the compounds of interest. […]
# [3] = tested on: PPARγ, FABP-4 and CD36 protein in 3T3-L1 adipocytes; experiment: Protein expression in differentiated 3T3-L1 adipocytes (Western Blot); type: cell-based, murine; details: rosiglitazone 2 μM
# Experimental: as §1
# (§2) Total 3T3-L1 or HEP-G2 cell lysates were prepared in lysis buffer (20 mM Tris-HCl, pH 7.4, 150 mM NaCl, 2 mM EDTA, 1% Triton X-100, 0.5% NP-40) supplemented with protease and phosphatase inhibitors (PhosSTOP^TM + cOmplete^TM Mini, Roche Diagnostics GmbH, Mannheim, Germany). Protein concentrations were quantified using the Pierce^TM BCA Protein Assay Kit (Thermo Scientific, Waltham, MA, United States). Total protein (30 μg/lane) was separated by SDS-polyacrylamide gel electrophoresis and transferred to nitrocellulose membranes (GE Healthcare Life Sciences, Little Chalfont, United Kingdom). Membranes were blocked with Odyssey blocking reagent (LI-COR Biosciences, Bad Homburg, Germany) for 1 h at room temperature. Ensuing, membranes were incubated with antibodies against CD36 (EPR6573, Abcam, Cambridge, United Kingdom), PPARγ (E-8, Santa Cruz Biotechnology, Heidelberg, Germany), FABP-4 (C-15, Santa Cruz Biotechnology, Heidelberg, Germany) or PPARγ Ser273 (Bioss Antibodies Inc., Woburn, MA, United States) overnight at 4°C. Afterwards, membranes were washed and incubated with fluorescence conjugated secondary antibodies (IRDye, LI-COR Biosciences, Bad Homburg, Germany). Protein antibody complexes were visualized on the Odyssey Infrared Imaging System (LI-COR Biosciences, Bad Homburg, Germany). β-actin (I-19, goat, polyclonal, Santa Cruz Biotechnology, Heidelberg, Germany) was used as loading control. The density of the immune reactive bands was analyzed using the Image Studio 5.2 software (LI-COR Biosciences, Bad Homburg, Germany).
# As master regulator of adipocyte differentiation in men and mice, PPARγ plays a crucial role in the cell’s commitment to the adipocyte lineage by controlling important functions such as intracellular biosynthesis, transport and accumulation of lipids. Murine 3T3-L1 fibroblasts are a well characterized in vitro tool to study PPARγ induced adipocyte differentiation. These cells can be differentiated from fibroblasts into adipocytes by an activation cocktail (0.5 mM IBMX, 1 μg/mL insulin, 0.25 μM dexamethasone) together with the potential PPARγ agonist. Upon differentiation, different parameters such as lipid accumulation and PPARγ target gene expression can be assessed to investigate the PPARγ activating potential of the compounds of interest. […] Rosiglitazone (2 μM) was used as positive control. This was followed by insulin (1 μg/mL) treatment for another 48 h. After this, cells were kept in growth medium for a week to complete the differentiation process and allow intracellular lipid accumulation. Subsequently, the cells were stained with Oil Red O solution to investigate the extent of cytoplasmic lipid droplet accumulation as a measure for cell differentiation.
# In addition to mRNA expression, the protein expression levels of the two PPARγ target genes FABP-4 and CD36 in differentiated 3T3-L1 cells after 14 days were investigated. For this, total protein lysates were separated by gel electrophoresis followed by Western Blotting (Figure 3E,F and Supplementary Figures S2A,B).
# [4] = tested on: PPARγ2 phosphorylation at serine 273; experiment: TNFα triggered PPARγ Ser273 phosphorylation in 3T3-L1 adipocytes (Western Blot); type: cell-based, murine; details: zafirlukast 1 or 10 μM or rosiglitazone 2 μM for 45 min, then TNFα 50 ng/mL 30 min
# Experimental: as §2, with “Ensuing, membranes were incubated with antibodies against CD36 (EPR6573, Abcam, Cambridge, United Kingdom), PPARγ (E-8, Santa Cruz Biotechnology, Heidelberg, Germany), FABP-4 (C-15, Santa Cruz Biotechnology, Heidelberg, Germany) or PPARγ Ser273 (Bioss Antibodies Inc., Woburn, MA, United States) overnight at 4°C.” left out, “Protein antibody complexes were visualized on the Odyssey Infrared Imaging System (LI-COR Biosciences, Bad Homburg, Germany). β-actin (I-19, goat, polyclonal, Santa Cruz Biotechnology, Heidelberg, Germany) was used as loading control.” left out
# We induced this post-translational modification by short-term treatment of the differentiated cells with the cytokine TNFα, generating a pro-inflammatory milieu. […] For this, we used an assay system in which the recruitment of the fluorescence-tagged PPARγ coactivator CBP to the PPARγ-LBD was assessed by time-resolved FRET technique in presence and absence of rosiglitazone.
PPARδ EC50 [1],IC50 (recombinant human sEH) [µM],IC50 (sEH (HEP-G2)) [µM],PPARα EC50 [2],SMILES,IC50 (CysLT1R) [µM],Lipid accumulation (Oil Red O staining) (3T3-L1 cells),PPARγ isoforms γ1 and γ2 protein expression ([3]; 3T3-L1 differentiated with cocktail plus compound),Protein expression of PPARγ target genes FABP-4 and CD36 ([3]; after 14 days),TNFα induced phosphorylation of PPARγ2 at serine 273 [4]
i.a. @ 10 μM,8.86 ± 0.19,14.1,i.a. @ 10 μM,"O=C(Nc1cccc2c(=O)cc(-c3nnn[nH]3)oc12)c1ccc(OCCCCc2ccccc2)cc1 [Pranlukast, pranlukast]",0.004,,,,
,,,,CN(CCOc1ccc(CC2SC(=O)NC2=O)cc1)c1ccccn1 (stereo not drawn) [rosiglitazone],,strong accumulation of lipid droplets,upregulated the protein levels,upregulated the expression of all target genes investigated with high potency,"inhibited this phosphorylation, although this effect was not significant"

# — PMC6435570, “Zafirlukast Is a Dual Modulator of Human Soluble Epoxide Hydrolase and Peroxisome Proliferator-Activated Receptor γ” (Frontiers in Pharmacology, 2019)
